Experimental findings from patent US7838554B2, “Dihydroxyl compounds and compositions for cholesterol management and related uses” (Esperion Therapeutics, Inc., priority 2003, dated 2010) are described below.

Structures are written as SMILES.

The subject of one data set is obese female Zucker rats. As to the kind of experiment: Oral daily treatment of chow fed obese female Zucker rats for fourteen days: serum lipids, glycemic indicators, body weight. The format is in vivo, rat. The note with it: 14 days, n=4. Here is the method: In a number of different experiments, illustrative compounds of the invention are administered daily at a dose of up to 100 mg/kg to chow fed obese female Zucker rats for fourteen days in the morning by oral gavage in 1.5% carboxymethylcellulose/0.2% Tween 20 or 20% ethanol/80% polyethylene glycol (dosing vehicles). Animals are weighed daily. Animals are allowed free access to rodent chow and water throughout the study except on days of blood sampling where food is restricted for six hours prior to blood sampling. Blood glucose is determined after the 6 hour fast in the afternoon without anesthesia from a tail vein. Serum is also prepared from pretreatment blood samples subsequently obtained from the orbital venous plexus (with O2/CO2 anesthesia) and following the fourteenth dose at sacrifice from the heart following O2/CO2 anesthesia. Serums are assayed for lipoprotein cholesterol profiles, triglycerides, total cholesterol, Non-HDL cholesterol, HDL cholesterol, the ratio of HDL cholesterol to that of Non-HDL cholesterol, insulin, non-esterified fatty acids, and beta-hydroxy butyric acid. The percent body weight gain and the ratio of liver to body weight is also determined. These are shown as absolute values or as a percent change of the pretreatment values in Table 1

In another data set the test system is primary rat hepatocytes. Kind of data set: Inhibition of lipid synthesis ([1-14C]-acetate incorporation) in primary cultures of rat hepatocytes. It is filed as cell-based. The note with it: Hepatocyte, 4 hours, 0-300 μM. Here is the method:
Compounds were tested for inhibition of lipid synthesis in primary cultures of rat hepatocytes. Male Sprague-Dawley rats were anesthetized with intraperitoneal injection of sodium pentobarbital (80 mg/kg). Rat hepatocytes were isolated essentially as described by the method of Seglen (Seglen, P. O. Hepatocyte suspensions and cultures as tools in experimental carcinogenesis. J. Toxicol. Environ. Health 1979, 5, 551-560). Hepatocytes were suspended in Dulbecco's Modified Eagles Medium containing 25 mM D-glucose, 14 mM HEPES, 5 mM L-glutamine, 5 mM leucine, 5 mM alanine, 10 mM lactate, 1 mM pyruvate, 0.2% bovine serum albumin, 17.4 mM non-essential amino acids, 20% fetal bovine serum, 100 nM insulin and 20 μg/mL gentamycin) and plated at a density of 1.5×10^5 cells/cm^2 on collagen-coated 96-well plates. Four hours after plating, media was replaced with the same media without serum. […] Lipid synthesis incubation conditions were initially assessed to ensure the linearity of [1-^14C])-acetate incorporation into hepatocyte lipids for up to 4 hours. Hepatocyte lipid synthesis inhibitory activity was assessed during incubations in the presence of 0.25 μCi [1-^14C]-acetate/well (final radiospecific activity in assay is 1 Ci/mol) and 0, 1, 3, 10, 30, 100 or 300 μM of compounds for 4 hours. […] Lipid radioactivity was assessed by scintillation spectroscopy in a Packard TopCount NXT.

A short description of data set [1]: Solubility noted on work-up of the tetraol. It is filed as physicochemical. The source says:
THP-protected bromo alcohol XA was converted into the corresponding Grignard reagent XB following the standard procedure (Vogel, A. I. “Vogel's Textbook of Practical Organic Chemistry”, 5th Edition, Longman, England, 1989, p. 535). Further coupling of this Grignard reagent in situ with succinic dialdehyde Z prepared by acid-catalyzed ring-opening of commercially available 2,5-dimethoxytetrahydrofuran Y (Fakstorp, J.; Raleigh, D.; Schniepp, L. E. J. Am. Chem. Soc., 1950, 72, 869, House, H. O.; Cronin, T. H. J. Org. Chem., 1965, 30, 1061) at 0 to 5° C. occurs smoothly to give the bis(THP-protected) tetraol XC in high yield (92% after flash column chromatography purification). Acidic hydrolysis of XC in methanol/aqueous H2SO4 was completed in two hours to afford tetraol XI). The product is insoluble in dichloromethane and diethyl ether and could be purified by washing with one of these solvents.

For `CC(C)(CO)CCCC(O)CCCC(O)CCCC(C)(C)CO` (centres unmarked) [Compound 6.2.2, 2,2,14,14-Tetramethylpentadecane-1,6,10,15-tetraol], the melting point (in general, the temperature of the solid-liquid transition) was in the range of 85 to 86 °C.
Consider `CC(C)(CO)CCCC(O)CCC(O)CCCC(C)(C)CO` (centres unmarked) [Compound A], for which, in the data set on obese female Zucker rats (100 mg/kg/day oral gavage), the “% wt. gain” value amounted to 13%. The “Glucose, Percent of Pre-treatment” value in the data set on obese female Zucker rats (blood glucose after 6 hour fast, 100 mg/kg/day oral) was 11%. Besides, the “BHA, Percent of Pre-treatment” value in the data set on obese female Zucker rats (serum beta-hydroxy butyric acid, 100 mg/kg/day oral) is 73%. For the same compound, the “NEFA, Percent of Pre-treatment” value in the data set with obese female Zucker rats (serum non-esterified fatty acids, 100 mg/kg/day oral) was found to be 143%. Further, the HDL-C/non-HDL-C in the data set on obese female Zucker rats (serum ratio, 100 mg/kg/day oral) was 1. In addition, the “TC, Percent of Pre-treatment” value with obese female Zucker rats (serum total cholesterol, 100 mg/kg/day oral) is reported as 4%. Further, the “TG, Percent of Pre-treatment” value in the data set with obese female Zucker rats (serum triglycerides, 100 mg/kg/day oral) was 43%. Also, in the data set on obese female Zucker rats (serum, 100 mg/kg/day oral), the “HDL-C, Percent of Pre-treatment” value is listed as −19%; the “Insulin, Percent of Pre-treatment” value is recorded as 70%; the “Non-HDL-C, Percent of Pre-treatment” value is listed as 30%. In addition, half-maximal inhibition with primary rat hepatocytes (IC50) required 1100 nM.
`CC(C)(CO)CCCC(O)CCC(O)CCCC(C)(C)CO` (centres unmarked) [XI), 2,2,13,13-Tetramethyltetradecan-1,6,9,14-tetraol] yielded a melting point of 96 to 97 °C. In addition, the Solubility in water entry in data set [1] was “practically insoluble”.
